Test results as given in patent publication US12290520B2, “Methods of use of emulsion formulations of aprepitant” (Heron Therapeutics, Inc., priority 2014, dated 2025).

Experiment: Pharmacokinetics of aprepitant emulsion vs fosaprepitant solution, intravenous
Format: in vivo, male Sprague-Dawley rats
Settings: rat, equivalent to 14 mg/kg aprepitant
Procedure: The pharmacokinetics of an aprepitant emulsion prepared according to Example 1 was determined. Two groups of six male Sprague-Dawley rats each were injected intravenously with, respectively, fosaprepitant in solution or aprepitant emulsion prepared according to Example 1. All drugs were administered at an effective concentration equivalent to 14 mg/kg aprepitant. Blood from all rats was collected at the appropriate time intervals and processed to plasma by centrifugation. Plasma samples were analyzed by LC-MS/MS for aprepitant and fosaprepitant, as appropriate. A plasma concentration versus time curve of aprepitant for the emulsion described in Example 1 and for fosaprepitant is presented in FIG. 2 (fosaprepitant in solution, ●; aprepitant emulsion, ▴). The curves indicate the initial aprepitant level reached immediately after injection of the aprepitant emulsion was almost 3 times higher than the initial aprepitant level reached immediately after injection of the fosaprepitant solution.

Plasma levels of aprepitant by the 3-hour time point, emulsion vs fosaprepitant solution: essentially the same
SMILES: C[C@@H](O[C@H]1OCCN(Cc2nc(O)n(P(=O)(O)O)n2)[C@H]1c1ccc(F)cc1)c1cc(C(F)(F)F)cc(C(F)(F)F)c1 [fosaprepitant]
